The target of test [1] is T1, Tumor necrosis factor (Homo sapiens, UniProt P01375). Description: Binding affinity to human TNF-alpha soluble domain assessed as decrease in complex formation with human TNFR1 extracellular domain preincubated for 1 hr followed by receptor addition measure after 2 hrs by TR-FRET assay. For orientation: TR-FRET usually uses a lanthanide donor and a delayed reading to cut background.

Test [2] can be described thus: Critical aggregation concentration assessed as formation of aggregate after 30 mins in presence of triton X-100 by light scattering method.
The nature of test [3]: Critical aggregation concentration assessed as formation of aggregate after 30 mins by light scattering method.
For test [4], the target named is T1, Tumor necrosis factor. The experiment in a line: Binding affinity to human TNF-alpha soluble domain assessed as decrease in complex formation with human TNFR2 extracellular domain preincubated for 1 hr followed by receptor addition measure after 2 hrs by TR-FRET assay.
Test [5] addresses T1, Tumor necrosis factor. The following applies: 50 uM.
Description: Binding affinity to human TNF-alpha soluble domain assessed as sedimentation velocity constant s20,w at 50 uM after 3 hrs by ultracentrifugation method

pIC50: −log10 of the molar value. Active and inactive are the calls of the source. The rule behind the calls is not given here.

The values below come from ChEMBL document CHEMBL4007494, “Structural Basis of Small-Molecule Aggregate Induced Inhibition of a Protein-Protein Interaction” (J Med Chem, 2017).

T1 sequence (P01375 whole entry, the tested form may be a part): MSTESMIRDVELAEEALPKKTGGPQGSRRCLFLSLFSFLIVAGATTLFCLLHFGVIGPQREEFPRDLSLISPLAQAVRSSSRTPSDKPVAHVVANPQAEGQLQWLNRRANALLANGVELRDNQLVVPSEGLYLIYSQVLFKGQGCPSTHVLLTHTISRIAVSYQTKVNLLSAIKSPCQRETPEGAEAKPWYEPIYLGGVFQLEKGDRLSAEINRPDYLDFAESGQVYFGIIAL

The term pIC50 denotes the IC50 on a negative log10 scale, so that one unit is a factor of ten. In the case of `Nc1nccc(N(Cc2ccccc2)c2ccccc2-c2cccc(-c3cnc(N4CCNCC4)nc3)c2)n1`, the negative-log IC50 (pIC50) in test [1] was 5.92; in test [4], 5.96. Moreover, in test [2], the CAC result was “inactive”. Also, the CAC in test [3] stood at 1 µM. In test [5], this molecule returned an S20,w of 3.09.
In the case of `Clc1ccc(COC(Cn2ccnc2)c2ccc(Cl)cc2Cl)c(Cl)c1` (stereo not drawn), the CAC result in test [2] is “inactive”. The CAC result in test [3] is “Dose-dependent effect”.
As for `Cc1cc2occ(CN(C)CCN(C)Cc3cn(-c4cccc(C(F)(F)F)c4)c4ccccc34)c(=O)c2cc1C`, the CAC in test [3] was 10 µM.
